Test results from PubChem BioAssay AID1963856 (Molecular Pharmacology Branch, DTP, NCI, 2024).

Test system: LG0567-F671-PDC KRAS tumor spheroid viability
Experiment: Anticancer human tumor LG0567-F671-PDC patient-derived lung adenocarcinoma cell line growth inhibition [KRAS2]
Conditions: spheroids with HUVEC and MSC; for IC50: curve of first compound; for viability, T/C: stronger effect = lower value
How it was run: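 Combination screen of spheroid viability in tumor-cell co-cultures with endothelial (HUVEC) and mesenchymal stem cell stroma. Each agent was tested in half-log dilutions, topping at clinical Cmax or at 10 microM without a known Cmax.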

[1] = second compound 0.1 µM, first compound 0.0316 µM
[2] = second compound 0.1 µM, first compound 0.1 µM
[3] = second compound 0.1 µM, first compound 0.316 µM
[4] = second compound 0.1 µM, first compound 1 µM
[5] = second compound 0.1 µM, first compound 3.16 µM
[6] = second compound 0.1 µM, first compound 10 µM
[7] = second compound 0.316 µM, first compound 0.0316 µM
[8] = second compound 0.316 µM, first compound 0.1 µM
[9] = second compound 0.316 µM, first compound 0.316 µM
[10] = second compound 0.316 µM, first compound 1 µM
[11] = second compound 0.316 µM, first compound 3.16 µM
[12] = second compound 0.316 µM, first compound 10 µM
[13] = second compound 1 µM, first compound 0.0316 µM
[14] = second compound 1 µM, first compound 0.1 µM
[15] = second compound 1 µM, first compound 0.316 µM
[16] = second compound 1 µM, first compound 1 µM
[17] = second compound 1 µM, first compound 3.16 µM
[18] = second compound 1 µM, first compound 10 µM
[19] = second compound 3.16 µM, first compound 0.0316 µM
[20] = second compound 3.16 µM, first compound 0.1 µM
[21] = second compound 3.16 µM, first compound 0.316 µM
[22] = second compound 3.16 µM, first compound 1 µM
[23] = second compound 3.16 µM, first compound 3.16 µM
[24] = second compound 3.16 µM, first compound 10 µM
[25] = second compound 10 µM, first compound 0.0316 µM
[26] = second compound 10 µM, first compound 0.1 µM
[27] = second compound 10 µM, first compound 0.316 µM
[28] = second compound 10 µM, first compound 1 µM
[29] = second compound 10 µM, first compound 3.16 µM
[30] = second compound 10 µM, first compound 10 µM
[31] = second compound 0.1 µM, first compound 0.000316 µM
[32] = second compound 0.1 µM, first compound 0.001 µM
[33] = second compound 0.1 µM, first compound 0.00316 µM
[34] = second compound 0.1 µM, first compound 0.01 µM
[35] = second compound 0.316 µM, first compound 0.000316 µM
[36] = second compound 0.316 µM, first compound 0.001 µM
[37] = second compound 0.316 µM, first compound 0.00316 µM
[38] = second compound 0.316 µM, first compound 0.01 µM
[39] = second compound 1 µM, first compound 0.000316 µM
[40] = second compound 1 µM, first compound 0.001 µM
[41] = second compound 1 µM, first compound 0.00316 µM
[42] = second compound 1 µM, first compound 0.01 µM
[43] = second compound 3.16 µM, first compound 0.000316 µM
[44] = second compound 3.16 µM, first compound 0.001 µM
[45] = second compound 3.16 µM, first compound 0.00316 µM
[46] = second compound 3.16 µM, first compound 0.01 µM
[47] = second compound 10 µM, first compound 0.000316 µM
[48] = second compound 10 µM, first compound 0.001 µM
[49] = second compound 10 µM, first compound 0.00316 µM
[50] = second compound 10 µM, first compound 0.01 µM
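Note: drug exposure lasted seven days after spheroids formed for three days.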
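Throughout, for viability, T/C: 100% = DMSO vehicle control viability.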

## CC(C)NCC(C(=O)N1CCN(c2ncnc3c2C(C)CC3O)CC1)c1ccc(Cl)cc1 (stereo not given) + COc1cc2nc(C)nc(NC(C)c3cc(N)cc(C(F)(F)F)c3)c2cc1OC1CCOC1
Second compound 0.1 µM
  IC50: 484 nM
Second compound 0.316 µM
  IC50: 467 nM
Second compound 1 µM
  IC50: 216 nM
Second compound 3.16 µM
  IC50: 415 nM
Second compound 10 µM
  IC50: 50.7 nM
[1]
  viability, T/C: 75.4%
[2]
  viability, T/C: 69.1%
[3]
  viability, T/C: 56.2%
[4]
  viability, T/C: 42%
[5]
  viability, T/C: 14.1%
[6]
  viability, T/C: 33.5%
[7]
  viability, T/C: 75.8%
[8]
  viability, T/C: 65.2%
[9]
  viability, T/C: 59.1%
[10]
  viability, T/C: 33.9%
[11]
  viability, T/C: 8.71%
[12]
  viability, T/C: 23.5%
[13]
  viability, T/C: 71.5%
[14]
  viability, T/C: 58.5%
[15]
  viability, T/C: 44%
[16]
  viability, T/C: 32.2%
[17]
  viability, T/C: 7.19%
[18]
  viability, T/C: 2.61%
[19]
  viability, T/C: 60.1%
[20]
  viability, T/C: 58.3%
[21]
  viability, T/C: 66.4%
[22]
  viability, T/C: 12%
[23]
  viability, T/C: 5.68%
[24]
  viability, T/C: 19.6%
[25]
  viability, T/C: 56.7%
[26]
  viability, T/C: 39.8%
[27]
  viability, T/C: 21.6%
[28]
  viability, T/C: 5.09%
[29]
  viability, T/C: 3.01%
[30]
  viability, T/C: 4.23%

## CC(C)n1nc(-c2ccc3oc(N)nc3c2)c2c(N)ncnc21 + COc1cc2nc(C)nc(NC(C)c3cc(N)cc(C(F)(F)F)c3)c2cc1OC1CCOC1
Second compound 0.1 µM
  IC50: 56 nM
Second compound 0.316 µM
  IC50: 15.7 nM
Second compound 1 µM
  IC50: 2.92 nM
Second compound 3.16 µM
  IC50: 0.992 nM
Second compound 10 µM
  IC50: < 0.316 nM
[31]
  viability, T/C: 76.4%
[32]
  viability, T/C: 73.5%
[33]
  viability, T/C: 60.4%
[34]
  viability, T/C: 60.6%
[1]
  viability, T/C: 51.8%
[2]
  viability, T/C: 47.5%
[35]
  viability, T/C: 65.2%
[36]
  viability, T/C: 73.6%
[37]
  viability, T/C: 57.7%
[38]
  viability, T/C: 47.5%
[7]
  viability, T/C: 49.8%
[8]
  viability, T/C: 34.7%
[39]
  viability, T/C: 70.1%
[40]
  viability, T/C: 59.1%
[41]
  viability, T/C: 45.8%
[42]
  viability, T/C: 45.2%
[13]
  viability, T/C: 28.4%
[14]
  viability, T/C: 23.5%
[43]
  viability, T/C: 59.9%
[44]
  viability, T/C: 49.9%
[45]
  viability, T/C: 38.4%
[46]
  viability, T/C: 32%
[19]
  viability, T/C: 20.5%
[20]
  viability, T/C: 10.2%
[47]
  viability, T/C: 37.7%
[48]
  viability, T/C: 35.2%
[49]
  viability, T/C: 24.8%
[50]
  viability, T/C: 16.2%
[25]
  viability, T/C: 11.5%
[26]
  viability, T/C: 9.84%

## CC1(C)CCC(CN2CCN(c3ccc(C(=O)NS(=O)(=O)c4ccc(NCC5CCOCC5)c([N+](=O)[O-])c4)c(Oc4cnc5[nH]ccc5c4)c3)CC2)=C(c2ccc(Cl)cc2)C1 + COc1cc2nc(C)nc(NC(C)c3cc(N)cc(C(F)(F)F)c3)c2cc1OC1CCOC1
Second compound 0.1 µM
  IC50: 1510 nM
Second compound 0.316 µM
  IC50: 1360 nM
Second compound 1 µM
  IC50: 1360 nM
Second compound 3.16 µM
  IC50: 1220 nM
Second compound 10 µM
  IC50: 640 nM
[1]
  viability, T/C: 73.5%
[2]
  viability, T/C: 67.3%
[3]
  viability, T/C: 59%
[4]
  viability, T/C: 68.8%
[5]
  viability, T/C: 18.8%
[6]
  viability, T/C: 11.7%
[7]
  viability, T/C: 67.5%
[8]
  viability, T/C: 66.5%
[9]
  viability, T/C: 61.2%
[10]
  viability, T/C: 59.6%
[11]
  viability, T/C: 25%
[12]
  viability, T/C: 7.5%
[13]
  viability, T/C: 69%
[14]
  viability, T/C: 73.3%
[15]
  viability, T/C: 72.6%
[16]
  viability, T/C: 58.7%
[17]
  viability, T/C: 24.1%
[18]
  viability, T/C: 3.67%
[19]
  viability, T/C: 70.2%
[20]
  viability, T/C: 70.7%
[21]
  viability, T/C: 62.8%
[22]
  viability, T/C: 57.8%
[23]
  viability, T/C: 15.6%
[24]
  viability, T/C: 5.87%
[25]
  viability, T/C: 81.3%
[26]
  viability, T/C: 76.5%
[27]
  viability, T/C: 63%
[28]
  viability, T/C: 42.7%
[29]
  viability, T/C: 14.1%
[30]
  viability, T/C: 1.67%

## COc1cc2nccc(Oc3ccc(NC(=O)C4(C(=O)Nc5ccc(F)cc5)CC4)cc3)c2cc1OC + COc1cc2nc(C)nc(NC(C)c3cc(N)cc(C(F)(F)F)c3)c2cc1OC1CCOC1
Second compound 0.1 µM
  IC50: > 10000 nM
Second compound 0.316 µM
  IC50: < 31.6 nM
Second compound 1 µM
  IC50: < 31.6 nM
Second compound 3.16 µM
  IC50: 204 nM
Second compound 10 µM
  IC50: 175 nM
[1]
  viability, T/C: 78.6%
[2]
  viability, T/C: 71.5%
[3]
  viability, T/C: 56.5%
[4]
  viability, T/C: 32.8%
[5]
  viability, T/C: 101%
[6]
  viability, T/C: 95.6%
[7]
  viability, T/C: 61.5%
[8]
  viability, T/C: 58.6%
[9]
  viability, T/C: 45.4%
[10]
  viability, T/C: 25.6%
[11]
  viability, T/C: 87.3%
[12]
  viability, T/C: 74%
[13]
  viability, T/C: 43.8%
[14]
  viability, T/C: 53%
[15]
  viability, T/C: 42.7%
[16]
  viability, T/C: 20.9%
[17]
  viability, T/C: 79.8%
[18]
  viability, T/C: 53.3%
[19]
  viability, T/C: 63.7%
[20]
  viability, T/C: 62%
[21]
  viability, T/C: 42.1%
[22]
  viability, T/C: 24.8%
[23]
  viability, T/C: 9.35%
[24]
  viability, T/C: 72.6%
[25]
  viability, T/C: 71.7%
[26]
  viability, T/C: 54.2%
[27]
  viability, T/C: 49.2%
[28]
  viability, T/C: 37.4%
[29]
  viability, T/C: 1.24%
[30]
  viability, T/C: 78.7%

## Cn1ncnc1[C@H]1c2n[nH]c(=O)c3cc(F)cc(c23)N[C@@H]1c1ccc(F)cc1 + COc1cc2nc(C)nc(NC(C)c3cc(N)cc(C(F)(F)F)c3)c2cc1OC1CCOC1
Second compound 0.1 µM
  IC50: > 100 nM
Second compound 0.316 µM
  IC50: > 100 nM
Second compound 1 µM
  IC50: > 100 nM
Second compound 3.16 µM
  IC50: > 100 nM
Second compound 10 µM
  IC50: > 100 nM
[31]
  viability, T/C: 94.8%
[32]
  viability, T/C: 78.3%
[33]
  viability, T/C: 74.8%
[34]
  viability, T/C: 83.8%
[1]
  viability, T/C: 84.7%
[2]
  viability, T/C: 82.8%
[35]
  viability, T/C: 77.6%
[36]
  viability, T/C: 74.9%
[37]
  viability, T/C: 61.1%
[38]
  viability, T/C: 66.3%
[7]
  viability, T/C: 81.4%
[8]
  viability, T/C: 75.9%
[39]
  viability, T/C: 75.6%
[40]
  viability, T/C: 63.6%
[41]
  viability, T/C: 58.6%
[42]
  viability, T/C: 49.1%
[13]
  viability, T/C: 53.7%
[14]
  viability, T/C: 53.8%
[43]
  viability, T/C: 69.1%
[44]
  viability, T/C: 70%
[45]
  viability, T/C: 67.3%
[46]
  viability, T/C: 56.9%
[19]
  viability, T/C: 53.6%
[20]
  viability, T/C: 51.9%
[47]
  viability, T/C: 61.3%
[48]
  viability, T/C: 62.9%
[49]
  viability, T/C: 71.2%
[50]
  viability, T/C: 54.4%
[25]
  viability, T/C: 51.7%
[26]
  viability, T/C: 53.6%
